In ChEMBL document CHEMBL2413072, “Synthesis and in vitro anticancer studies of novel C-2 arylidene congeners of lantadenes” (2013):

Experiments:
Type in all cases: functional
RPMI-8226 [1] = test: Growth inhibition of human RPMI8226 cells assessed as growth inhibition at 10 uM by sulforhodamine B assay; conditions: read-out: GI
SF-268 = test: Growth inhibition of human SF268 cells assessed as growth inhibition at 10 uM by sulforhodamine B assay; conditions: read-out: GI
NCI-H23 = test: Growth inhibition of human NCI-H23 cells assessed as growth inhibition at 10 uM by sulforhodamine B assay; conditions: read-out: GI
CCRF-CEM = test: Growth inhibition of human CCRF-CEM cells assessed as cell growth at 10 uM by sulforhodamine B assay; conditions: read-out: Activity
NCI-H460 = test: Growth inhibition of human NCI-H460 cells assessed as growth inhibition at 10 uM by sulforhodamine B assay; conditions: read-out: GI
CAKI-1 [2] = test: Growth inhibition of human CAKI-1 cells assessed as cell growth at 10 uM by sulforhodamine B assay; conditions: read-out: Activity
OVCAR-5 = test: Growth inhibition of human OVCAR5 cells assessed as cell growth at 10 uM by sulforhodamine B assay; conditions: read-out: Activity
HOP-62 = test: Growth inhibition of human HOP62 cells assessed as cell growth at 10 uM by sulforhodamine B assay; conditions: read-out: Activity
RPMI-8226 [3] = test: Growth inhibition of human RPMI8226 cells assessed as cell growth at 10 uM by sulforhodamine B assay; conditions: read-out: Activity
LOX IMVI = test: Growth inhibition of human LOXIMVI cells assessed as growth inhibition at 10 uM by sulforhodamine B assay; conditions: read-out: GI
OVCAR-3 [4] = test: Growth inhibition of human OVCAR3 cells assessed as growth inhibition at 10 uM by sulforhodamine B assay; conditions: read-out: GI
TK-10 = test: Growth inhibition of human TK10 cells assessed as growth inhibition at 10 uM by sulforhodamine B assay; conditions: read-out: GI
MOLT-4 = test: Growth inhibition of human MOLT4 cells assessed as growth inhibition at 10 uM by sulforhodamine B assay; conditions: read-out: GI
[5] = Growth inhibition of human HCC2998 cells assessed as growth inhibition at 10 uM by sulforhodamine B assay; conditions: HCC 2998, read-out: GI
SK-OV-3 = test: Growth inhibition of human SKOV3 cells assessed as growth inhibition at 10 uM by sulforhodamine B assay; conditions: read-out: GI
SF-539 = test: Growth inhibition of human SF539 cells assessed as cell growth at 10 uM by sulforhodamine B assay; conditions: read-out: Activity
OVCAR-8 = test: Growth inhibition of human OVCAR8 cells assessed as cell growth at 10 uM by sulforhodamine B assay; conditions: read-out: Activity
M14 = test: Growth inhibition of human M14 cells assessed as growth inhibition at 10 uM by sulforhodamine B assay; conditions: read-out: GI
786-0 = test: Growth inhibition of human 786-0 cells assessed as growth inhibition at 10 uM by sulforhodamine B assay; conditions: read-out: GI
SN12C = test: Growth inhibition of human SN12C cells assessed as growth inhibition at 10 uM by sulforhodamine B assay; conditions: read-out: GI
NCI-H522 [6] = test: Growth inhibition of human NCI-H522 cells assessed as cell growth at 10 uM by sulforhodamine B assay; conditions: read-out: Activity
SF-295 [7] = test: Growth inhibition of human SF295 cells assessed as growth inhibition at 10 uM by sulforhodamine B assay; conditions: read-out: GI
HCT-15 = test: Growth inhibition of human HCT15 cells assessed as cell growth at 10 uM by sulforhodamine B assay; conditions: read-out: Activity
SK-MEL-2 = test: Growth inhibition of human SK-MEL-2 cells assessed as cell growth at 10 uM by sulforhodamine B assay; conditions: read-out: Activity
OVCAR-3 [8] = test: Growth inhibition of human OVCAR3 cells assessed as cell growth at 10 uM by sulforhodamine B assay; conditions: read-out: Activity
MDA-MB-435 = test: Growth inhibition of human MDA-MB-435 cells assessed as cell growth at 10 uM by sulforhodamine B assay; conditions: read-out: Activity
PC-3 [9] = test: Growth inhibition of human PC3 cells assessed as growth inhibition at 10 uM by sulforhodamine B assay; conditions: read-out: GI
HCT-116 = test: Growth inhibition of human HCT116 cells assessed as growth inhibition at 10 uM by sulforhodamine B assay; conditions: read-out: GI
NCI-H226 [10] = test: Growth inhibition of human NCI-H226 cells assessed as growth inhibition at 10 uM by sulforhodamine B assay; conditions: read-out: GI
PC-3 [11] = test: Growth inhibition of human PC3 cells assessed as cell growth at 10 uM by sulforhodamine B assay; conditions: read-out: Activity
[12] = Growth inhibition of human NCI-ADR-RES cells assessed as cell growth at 10 uM by sulforhodamine B assay; conditions: read-out: Activity
NCI-H522 [13] = test: Growth inhibition of human NCI-H522 cells assessed as growth inhibition at 10 uM by sulforhodamine B assay; conditions: read-out: GI
MCF7 = test: Growth inhibition of human MCF7 cells assessed as cell growth at 10 uM by sulforhodamine B assay; conditions: read-out: Activity
[14] = Growth inhibition of human HCC2998 cells assessed as cell growth at 10 uM by sulforhodamine B assay; conditions: HCC 2998, read-out: Activity
SF-295 [15] = test: Growth inhibition of human SF295 cells assessed as cell growth at 10 uM by sulforhodamine B assay; conditions: read-out: Activity
NCI-H322M = test: Growth inhibition of human NCI-H322M cells assessed as growth inhibition at 10 uM by sulforhodamine B assay; conditions: read-out: GI
UACC-62 = test: Growth inhibition of human UACC62 cells assessed as cell growth at 10 uM by sulforhodamine B assay; conditions: read-out: Activity
U-251 = test: Growth inhibition of human U251 cells assessed as growth inhibition at 10 uM by sulforhodamine B assay; conditions: read-out: GI
SK-MEL-28 [16] = test: Growth inhibition of human SK-MEL-28 cells assessed as cell growth at 10 uM by sulforhodamine B assay; conditions: read-out: Activity
A498 = test: Growth inhibition of human A498 cells assessed as growth inhibition at 10 uM by sulforhodamine B assay; conditions: read-out: GI
SK-MEL-28 [17] = test: Growth inhibition of human SK-MEL-28 cells assessed as growth inhibition at 10 uM by sulforhodamine B assay; conditions: read-out: GI
OVCAR-4 = test: Growth inhibition of human OVCAR4 cells assessed as growth inhibition at 10 uM by sulforhodamine B assay; conditions: read-out: GI
NCI-H226 [18] = test: Growth inhibition of human NCI-H226 cells assessed as cell growth at 10 uM by sulforhodamine B assay; conditions: read-out: Activity
HT-29 = test: Growth inhibition of human HT-29 cells assessed as growth inhibition at 10 uM by sulforhodamine B assay; conditions: read-out: GI
MDA-MB-468 = test: Growth inhibition of human MDA-MB-468 cells assessed as growth inhibition at 10 uM by sulforhodamine B assay; conditions: read-out: GI
A549 = test: Growth inhibition of human A549/ATCC cells assessed as cell growth at 10 uM by sulforhodamine B assay; conditions: read-out: Activity
CAKI-1 [19] = test: Growth inhibition of human CAKI-1 cells assessed as growth inhibition at 10 uM by sulforhodamine B assay; conditions: read-out: GI
MDA-MB-231 = test: Growth inhibition of human MDA-MB-231 cells assessed as cell growth at 10 uM by sulforhodamine B assay; conditions: read-out: Activity

CC1(C)C[C@@H](O)[C@]2(C(=O)O)CC[C@]3(C)C(=CC[C@@H]4[C@@]5(C)C/C(=C\C=C\c6ccccc6)C(=O)C(C)(C)[C@@H]5CC[C@]43C)[C@@H]2C1
inhibition of growth at 10 µM (RPMI-8226 [1]): 84.4%
inhibition of growth at 10 µM (SF-268): 29.3%
inhibition of growth at 10 µM (NCI-H23): 40.3%
growth at 10 µM (CCRF-CEM): 19.9%
inhibition of growth at 10 µM (NCI-H460): 54.2%
growth at 10 µM (CAKI-1 [2]): 43%
growth at 10 µM (OVCAR-5): 104%
growth at 10 µM (HOP-62): 62.8%
growth at 10 µM (RPMI-8226 [3]): 15.6%
inhibition of growth at 10 µM (LOX IMVI): 38.6%
inhibition of growth at 10 µM (OVCAR-3 [4]): 42.7%
inhibition of growth at 10 µM (TK-10): 11.7%
inhibition of growth at 10 µM (MOLT-4): 55.6%
inhibition of growth at 10 µM [5]: 17.2%
inhibition of growth at 10 µM (SK-OV-3): 14.3%
growth at 10 µM (SF-539): 91.9%
growth at 10 µM (OVCAR-8): 43%
inhibition of growth at 10 µM (M14): 27.1%
inhibition of growth at 10 µM (786-0): 21.9%
inhibition of growth at 10 µM (SN12C): 54.5%
growth at 10 µM (NCI-H522 [6]): 47.7%
inhibition of growth at 10 µM (SF-295 [7]): 76.5%
growth at 10 µM (HCT-15): 35.2%
growth at 10 µM (SK-MEL-2): 64.6%
growth at 10 µM (OVCAR-3 [8]): 57.3%
growth at 10 µM (MDA-MB-435): 72.3%
inhibition of growth at 10 µM (PC-3 [9]): 58.5%
inhibition of growth at 10 µM (HCT-116): 82.5%
inhibition of growth at 10 µM (NCI-H226 [10]): 27.7%
growth at 10 µM (PC-3 [11]): 41.5%
growth at 10 µM [12]: 76.2%
inhibition of growth at 10 µM (NCI-H522 [13]): 52.3%
growth at 10 µM (MCF7): 33.8%
growth at 10 µM [14]: 82.8%
growth at 10 µM (SF-295 [15]): 23.5%
inhibition of growth at 10 µM (NCI-H322M): 28.1%
growth at 10 µM (UACC-62): 50.4%
inhibition of growth at 10 µM (U-251): 66.4%
growth at 10 µM (SK-MEL-28 [16]): 74.2%
inhibition of growth at 10 µM (A498): < 10%
inhibition of growth at 10 µM (SK-MEL-28 [17]): 25.8%
inhibition of growth at 10 µM (OVCAR-4): 45.8%
growth at 10 µM (NCI-H226 [18]): 72.3%
inhibition of growth at 10 µM (HT-29): 48.3%
inhibition of growth at 10 µM (MDA-MB-468): 27.4%
growth at 10 µM (A549): 22.7%
inhibition of growth at 10 µM (CAKI-1 [19]): 57%
growth at 10 µM (MDA-MB-231): 68.9%

CC(C)=CC(=O)O[C@@H]1CC(C)(C)C[C@H]2C3=CC[C@@H]4[C@@]5(C)CCC(=O)C(C)(C)[C@@H]5CC[C@@]4(C)[C@]3(C)CC[C@@]12C(=O)O
inhibition of growth at 10 µM (RPMI-8226 [1]): 80.4%
inhibition of growth at 10 µM (SF-268): 27%
inhibition of growth at 10 µM (NCI-H23): 46.6%
growth at 10 µM (CCRF-CEM): 25.3%
inhibition of growth at 10 µM (NCI-H460): 52.9%
growth at 10 µM (CAKI-1 [2]): 46.8%
growth at 10 µM (OVCAR-5): 96.3%
growth at 10 µM (HOP-62): 60.2%
growth at 10 µM (RPMI-8226 [3]): 19.6%
inhibition of growth at 10 µM (LOX IMVI): 48.8%
inhibition of growth at 10 µM (OVCAR-3 [4]): 38.7%
inhibition of growth at 10 µM (TK-10): 21.9%
inhibition of growth at 10 µM (MOLT-4): 63.5%
inhibition of growth at 10 µM [5]: 47.2%
inhibition of growth at 10 µM (SK-OV-3): < 10%
growth at 10 µM (SF-539): 65%
growth at 10 µM (OVCAR-8): 55.1%
inhibition of growth at 10 µM (M14): 19.7%
inhibition of growth at 10 µM (786-0): 55.9%
inhibition of growth at 10 µM (SN12C): 57.4%
growth at 10 µM (NCI-H522 [6]): 57.3%
growth at 10 µM (HCT-15): 18.6%
growth at 10 µM (SK-MEL-2): 78.2%
growth at 10 µM (OVCAR-3 [8]): 61.3%
growth at 10 µM (MDA-MB-435): 89.6%
inhibition of growth at 10 µM (PC-3 [9]): 63.1%
inhibition of growth at 10 µM (HCT-116): 73.4%
inhibition of growth at 10 µM (NCI-H226 [10]): 21.8%
growth at 10 µM (PC-3 [11]): 36.9%
growth at 10 µM [12]: 60%
inhibition of growth at 10 µM (NCI-H522 [13]): 42.7%
growth at 10 µM (MCF7): 49.3%
growth at 10 µM [14]: 52.8%
inhibition of growth at 10 µM (NCI-H322M): 46%
growth at 10 µM (UACC-62): 57.8%
inhibition of growth at 10 µM (U-251): 61.8%
growth at 10 µM (SK-MEL-28 [16]): 91.2%
inhibition of growth at 10 µM (A498): < 10%
inhibition of growth at 10 µM (SK-MEL-28 [17]): < 10%
inhibition of growth at 10 µM (OVCAR-4): 28.7%
growth at 10 µM (NCI-H226 [18]): 78.2%
inhibition of growth at 10 µM (HT-29): 42.7%
inhibition of growth at 10 µM (MDA-MB-468): 35.8%
growth at 10 µM (A549): 22.2%
inhibition of growth at 10 µM (CAKI-1 [19]): 53.2%
growth at 10 µM (MDA-MB-231): 71.5%
